Results taken from patent publication US5840740A, “Aminosterol compounds and a method of treating infection using the aminosterol compounds” (priority 1995, dated 1998).
“Also recorded” adds a separate entry of the source.

Key:
[1] = system: bacteria, fungi and protozoa; settings: background; cited from earlier work
[2] = system: bovine pulmonary endothelial cells; experiment: Growth inhibition of endothelial cells in vitro; assay type: cell-based; settings: 1 μg/ml; absorbance at 600 nm
human NHE1 = experiment: pH recovery in PS120 fibroblasts transfected with human NHE1; assay type: cell-based; settings: 5 μg/ml; acid-preloaded
Procedure: (§1) PS120 fibroblasts transfected with rabbit or human NHE1 were grown as described above.

Xenopus tadpole = settings: stage 59-60, 10 μg/ml
chorioallantoic membrane = experiment: Chorioallantoic membrane (CAM) model; assay type: in vivo, chick; settings: for Percentage positive, Assay 1 / Percentage positive, Assay 2: 3-day embryo, some vascular irritation noted
Source text: The growing capillaries within the chorioallantoic membrane model (CAM model) have been used as a system in which to evaluate the effect of agents on their potential to inhibit new vessel growth. Neovascularization occurs most aggressively over the first week of embryonic development. Thereafter capillary growth is characterized by principally "elongation" rather than "de novo" formation.
In the standard assay, agents are applied locally to a region of the embryo over which neovascularization will occur. Agents are assessed by their ability to inhibit this process, as evaluated by visual examination about 7 days after application. […] The assay utilized is described in detail in Auerbach et al., Pharm. Ther. 51, 1991, 1-11.

[3] = system: human umbilical venous endothelial cells; experiment: LPS-induced neutrophil adherence to endothelial cells; settings: squalamine 10, 1.0 or 0.1 μg; three subjects
Procedure: To determine if squalamine inhibited this particular endothelial cell function, standard adhesion assays were performed as outlined in Gamble et al., J. Imm. […] In these experiments, approximately 2×10^5 human umbilical venous cells (passage 2-6) were plated per well. The cells were grown in serum-free media overnight. For induction, either TNF-α (40 ng/ml) was added to endothelial cells for 6 hours prior to adding neutrophils or LPS (100 ng/ml) was added for 4-6 hours. […] After activation of the endothelial cells, approximately 50×10^6 neutrophils were added per well. The plates were gently rocked for 30 minutes at room temperature, followed by removal of the media and washing in serum-free media three times and then photographing of each well. Experiments to test the effects of squalamine were performed by adding squalamine at 10 μg, 1.0 μg, or 0.1 μg at the time of adding LPS or TNF-α. A second repeat dose of squalamine was added at the time of adding neutrophils. A monoclonal Ab to ICAM-1 was a positive control.

B16 melanoma = B16 melanoma growth in C57B mice; assay type: in vivo, mouse
Procedure: The growth of B16 melanoma in C57B mice is dependent upon neovascularization.
Using the growth of B16 melanoma cells in C57B mice, a recognized model for the evaluation of inhibitors of angiogenesis on the growth of cancers, the effects of subcutaneous, intraperitoneal and oral administration of squalamine were evaluated.
In this model, there was observed little evidence of metastasis with or without treatment with chemotherapeutic agents.
Based on the idea that tumor growth involves both the clonal expansion of a malignant cell along with the development of a supporting vascular supply, a combination of compound 1436 with squalamine was tested to determine whether it would achieve a synergistic effect on solid tumor growth. This concept was evaluated in the B16 melanoma model.
Animals were implanted with B16 melanoma followed by treatment with compound 1436 or 1256 administered in a combined schedule or separately. […] Thus, a combination of these two compounds achieves a therapeutic benefit in tumors dependent on neovascularization that may prevent metastatic spread.

[4] = Fasting blood glucose in mice; assay type: in vivo, mouse (male CD-1); settings: 2 x 10 mg/kg i.v. (total 20 mg/kg), 30 min after 2d dose; in H2O (1437, 1256) or D5W (1436)
Procedure: To study the effect of steroid administrator or the NHE responsible for secretion of insulin, several of the aminosterols from shark liver were administered to fasting mice. Male CD-1 mice were assigned to one of four treatment groups. Whole blood glucose was tested using glucometer (Lifescan Glucometer II and One Touch test strips). Statistical analysis was via one-way analysis of variance (ANOVA) followed by subsequent Bonferonni's t-test.

rabbit NHE3 = rabbit NHE3 (Oryctolagus cuniculus, UniProt P26432); settings: 5 μg/ml squalamine; cells not acid-preloaded
Procedure: For cells not acid-preloaded, the actual internal pH value was monitored as a function of time following addition of squalamine, with the results depicted in FIG. 1B.
PS120 fibroblasts transfected with rabbit NHE3 were grown and acid preloaded by exposure to 40 mM NH4 C1 as described above in conjunction with FIGS. 1A and 1B. Internal cellular pH changes expressed as the rate of pH recovery as a function of restored extracellular sodium ion concentration following exposure to 10 μg/ml of the compound were assayed with the fluorescent dye BCECF-AM as described above.

[5] = system: human coronary artery smooth muscle; experiment: Proliferation of human coronary artery smooth muscle in vitro; assay type: cell-based; settings: in words (1436: about 11 μg/ml)
Source text: Aminosterols of the invention may also have utility in inhibiting the growth factor mediated proliferation of smooth muscle within the artery. Following coronary angioplasty, reocclusion commonly occurs, secondary to reparative proliferation of the vascular smooth muscle within the wall of the surgically manipulated blood vessel. This process generally takes place over the course of 7-10 days. To evaluate whether an agent could prevent the growth factor mediated proliferation of smooth muscle within the artery, compound 1436 was evaluated in vitro for its effect on the proliferation of human coronary artery smooth muscle. Results for compound 1436 are shown in FIG. 13, and those for squalamine are shown in FIG. 14, with FIG. 15 being a composite logarithmic plot.

melanoma 1205Lu = experiment: Human melanoma growth in immunocompromised RAG-1 mice; assay type: in vivo, human tumor in RAG-1 mice; settings: 10, 20, 40 mg/kg/d (FIG. 5)
Source text: As apparent from FIG. 5, melanoma 1205Lu develops aggressively in RAG-1 mice after implantation.

[6] = system: human epithelial cell line MCF 10A; experiment: Growth inhibition of epithelial cells in vitro; assay type: cell-based; settings: 10 μg/ml; absorbance at 600 nm
[7] = system: PHA-stimulated human lymphocytes; experiment: Inhibition of mitogen (PHA)-stimulated growth of human T-cells; assay type: cell-based; settings: in words; 10 μg/ml
Source text: Results are tabulated below.

B16 = experiment: Cytostatic activity against B16 in culture; assay type: cell-based, murine
rabbit NHE1 = experiment: pH recovery in PS120 fibroblasts transfected with rabbit NHE1; assay type: cell-based; settings: 5 μg/ml; acid-preloaded
Procedure: as §1

[8] = system: chick embryo vitelline capillaries; experiment: Chick embryo vitelline capillary regression assay; assay type: in vivo; parameters: key to vascular reactivity (capillary regression): +: Vascular reactivity; 0: No vascular reactivity; +/-: Equivocal reactivity; settings: for vascular reactivity (capillary regression): 60 min
Summary of the method: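 Each compound was applied onto 3-day chick embryos in 0.1 ml 15% Ficol 400 in PBS. Regression of vitelline capillaries was scored visually after 60 minutes.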

[9] = system: human microvascular cells; experiment: Inhibition of endothelial cell cord formation in vitro; assay type: cell-based; settings: at cord formation-inhibiting concentrations
Source text: Endothelial cells have the capacity in vitro to form tubular aggregates resembling capillaries in various early stages of formation. This conversion occurs under relatively specific conditions, in which essential growth factors along with an effective substratum are provided. It has been shown that both the interaction of growth factors with the endothelial cell and its attachment to a substratum activate the NHE. The activation of this exchanger is believed to be required for subsequent morphologic transformation of the endothelial cell into a multicellular tubular structure.
To assess the effect of compounds on the cord-like structures formed by human microvascular cells when plated in the presence of VEFG (Vascular Endothelial Growth Factor) and basic fibroblast growth factor on a collagen matrix, a standard cord formation assay was used.

[10] = system: human foreskin fibroblasts; experiment: Growth inhibition of fibroblasts in vitro; assay type: cell-based; settings: 10 μg/ml; absorbance at 600 nm

Sequence of rabbit NHE3 (P26432 30-832): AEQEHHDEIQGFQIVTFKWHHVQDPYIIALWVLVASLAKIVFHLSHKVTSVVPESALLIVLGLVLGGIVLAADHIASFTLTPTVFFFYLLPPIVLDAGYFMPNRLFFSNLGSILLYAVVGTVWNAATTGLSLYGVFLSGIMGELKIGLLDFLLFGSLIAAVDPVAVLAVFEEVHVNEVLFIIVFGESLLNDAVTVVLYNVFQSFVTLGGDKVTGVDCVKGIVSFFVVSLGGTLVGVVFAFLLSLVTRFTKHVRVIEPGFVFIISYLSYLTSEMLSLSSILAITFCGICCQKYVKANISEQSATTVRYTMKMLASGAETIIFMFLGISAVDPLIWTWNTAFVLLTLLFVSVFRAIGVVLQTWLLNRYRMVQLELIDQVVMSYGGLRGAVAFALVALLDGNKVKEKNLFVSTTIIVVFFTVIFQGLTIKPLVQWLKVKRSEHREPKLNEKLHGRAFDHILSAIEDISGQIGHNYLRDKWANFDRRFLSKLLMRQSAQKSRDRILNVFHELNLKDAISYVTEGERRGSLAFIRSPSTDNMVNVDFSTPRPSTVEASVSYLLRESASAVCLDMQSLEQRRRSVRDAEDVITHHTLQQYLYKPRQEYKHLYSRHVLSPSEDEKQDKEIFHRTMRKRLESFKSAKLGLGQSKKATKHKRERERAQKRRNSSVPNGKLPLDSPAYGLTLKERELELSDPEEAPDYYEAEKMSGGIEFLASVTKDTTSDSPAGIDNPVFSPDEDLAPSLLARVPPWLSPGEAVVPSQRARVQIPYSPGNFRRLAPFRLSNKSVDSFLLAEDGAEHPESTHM

CC(C)[C@@H](CC[C@@H](C)[C@H]1CC[C@H]2[C@@H]3[C@H](O)C[C@H]4C[C@@H](NCCCNCCCCN)CC[C@]4(C)[C@H]3CC[C@]12C)OS(=O)(=O)O [Squalamine, squalamine]
antibiotic spectrum [1]: broad-spectrum antibiotic, killing bacteria, fungi and protozoa
growth inhibition [2]: inhibited the growth
inhibition of human NHE1 (human NHE1): no inhibitory activity; also recorded: lack of inhibition of human NHE1
time to death (Xenopus tadpole): ≤ 2 h
pharmacological response in tadpole (Xenopus tadpole; in words, listed as Compound 1256 (Squalamine)): Vascular occlusion in fine capillaries of tail. No effect on vascular flow through hands or feet.
Percentage positive, Assay 1 (chorioallantoic membrane; 20 μg applied): 52 Percentage
Percentage positive, Assay 2 (chorioallantoic membrane; 20 μg applied): 58 Percentage
Percentage positive, Assay 1 (chorioallantoic membrane; 40 μg applied): 50 Percentage
Percentage positive, Assay 2 (chorioallantoic membrane; 40 μg applied): 13 Percentage
Percentage positive (chorioallantoic membrane; 13-day embryo, 5.0 μg applied, positive/total): 0/26
inhibition of neutrophil adherence [3]: no inhibition
body weight and hematologic parameters (B16 melanoma; s.c., i.p. or oral squalamine): no significant depression
effect on B16 tumor volume, single agent and combination (B16 melanoma; squalamine 5 mg/kg/day, compound 1436 10 mg/kg/every 3 days): no significant impact on tumor volume
suppression of B16 melanoma tumor growth (B16 melanoma; squalamine subcutaneous, intraperitoneal, oral): a dose-dependent suppression of tumor volume; also recorded: suppression of the growth of murine melanoma
Fasting Blood Glucose Mean ± SEM [4]: 65 ± 7.3 mg/dL
resting internal pH (rabbit NHE3): the resting pH of these cells was also inhibited
growth suppression / viability of smooth muscle cells [5]: suppress in vitro the growth of human coronary artery smooth muscle
suppression of human melanoma growth (melanoma 1205Lu): suppress the growth of melanoma 1205Lu in RAG-1 mice in a dose-dependent fashion; also recorded: clear suppression of tumor growth in a dose-dependent fashion
suppression of human melanoma growth (melanoma 1205Lu; listed as squalamine): After cessation of treatment, tumor growth continued at a rate similar to untreated controls
growth inhibition [6]: no effect
inhibition of blast transformation [7]: Some effect
cytostatic activity against B16 (B16): minimal cytostatic activity against B16 in culture, except at very high concentrations
inhibition of rabbit NHE1 (rabbit NHE1): no inhibitory activity; also recorded: lack of inhibition of rabbit sodium/proton exchanger isoform 1 (NHE1)
vascular reactivity (capillary regression) ([8]; 0.001 μg applied): 0
vascular reactivity (capillary regression) ([8]; 0.01 μg applied): +
vascular reactivity (capillary regression) ([8]; 0.1 μg applied): +
vascular reactivity (capillary regression) ([8]; 1 μg applied): +
vascular reactivity (capillary regression) ([8]; 10 μg applied): +
effect on chick embryo vessels / blood ([8]; in words): disrupt vitelline capillaries in 3- to 5-day chick embryos
effect on chick embryo vessels / blood ([8]; in words, listed as squalamine): especially active
hemorrhage / hemolysis / heartbeat in chick embryo ([8]; in words, listed as squalamine): No hemorrhage was seen; also recorded: absence of hemolysis; also recorded: The embryonic heart continued to beat vigorously
effect on cell viability or proliferation [9]: does not appear to profoundly affect cell viability or proliferation
growth inhibition [10]: no effect
